From article PMC10767055, “Different binding modalities of quercetin to inositol-requiring enzyme 1 of S. cerevisiae and human lead to opposite regulation” (Communications Chemistry, 2024)

What was measured:
[1] = target: T1, human IRE1 (hIRE1, IRE1α) (Homo sapiens, UniProt O75460); test: in vitro RNase cleavage assay, recombinant IRE1, fluorescence-quenched mini XBP1 RNA probe; type: biochemical
T1 construct: gene ERN1; aa 465-977, His & GST Tag

[2] = target: T1, human IRE1 (hIRE1, IRE1α); test: MST displacement of fluorescent Kinase Tracer […] (positive control); type: binding

T1 sequence (O75460 465-977): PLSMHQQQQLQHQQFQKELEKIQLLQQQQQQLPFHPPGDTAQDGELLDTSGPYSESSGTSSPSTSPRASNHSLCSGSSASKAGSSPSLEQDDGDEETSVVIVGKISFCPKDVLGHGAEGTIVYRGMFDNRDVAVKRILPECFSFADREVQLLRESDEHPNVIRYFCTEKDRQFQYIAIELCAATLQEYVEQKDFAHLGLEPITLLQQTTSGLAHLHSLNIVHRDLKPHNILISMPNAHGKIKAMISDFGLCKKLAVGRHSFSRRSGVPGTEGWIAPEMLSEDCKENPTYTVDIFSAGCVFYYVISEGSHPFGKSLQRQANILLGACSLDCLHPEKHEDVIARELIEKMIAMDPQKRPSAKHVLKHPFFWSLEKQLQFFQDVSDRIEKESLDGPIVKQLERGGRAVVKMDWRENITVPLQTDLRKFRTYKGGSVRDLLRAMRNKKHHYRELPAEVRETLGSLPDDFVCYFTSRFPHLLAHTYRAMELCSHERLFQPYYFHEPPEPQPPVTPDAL

| Structure (SMILES) | IC50 [1] [nM] | IC50 [2] [nM] |
| --- | --- | --- |
| O=c1c(O)c(-c2ccc(O)c(O)c2)oc2cc(O)cc(O)c12 [Qe, Quercetin] | 272 ± 150 |  |
| C[C@@H]1O[C@@H](Oc2c(-c3ccc(O)c(O)c3)oc3cc(O)cc(O)c3c2=O)[C@H](O)[C@H](O)[C@H]1O [Qi, Quercitrin] | 226 ± 70 |  |
| Cc1ccc2c(NS(=O)(=O)c3ccccc3Cl)cccc2c1Oc1ncccc1-c1ccnc(N[C@H]2CCCNC2)n1 [KIRA8] |  | 73 ± 5 |
